Experimental data: patent publication US11208642B2, “Microbial syringol utilization” (Alliance for Sustainable Energy, LLC, priority 2018, dated 2021)

Experiments:
GcoA-F169A = target: T1, GcoA-F169A (Amycolatopsis sp., UniProt P0DPQ7, F169A/H210Q); assay: Substrate dissociation constant (KD) by UV/vis spin-state titration; assay type: binding
T1 construct: GST (N, cleaved yes); made in house; host or cells: E. coli Rosetta 2 (DE3)
Protocol: Guaiacol (FIG. 1A) caused the Soret peak (λ=417 nm) of GcoA-F169A to shift to 387 nm, indicating the conversion of a low-spin to a high-spin species. Syringol (FIG. 1B) caused the Soret peak (λ=417 nm) of GcoA-F169A to shift to 387 nm, indicating the conversion of a low-spin to a high-spin species. 3MC (FIG. 1C) caused the Soret peak (λ=417 nm) of GcoA-F169A to shift to 387 nm, indicating the conversion of a low-spin to a high-spin species. 0-60 μM substrate was titrated into a solution containing 3 μM GcoA-F169A and air-saturated buffer (25 mM HEPES, 50 mM NaCl, pH 7.5, 25° C.) and the spectra monitored until there was no more change, indicating saturation. The solution reached equilibrium prior to each substrate addition. […] Error bars represent ±1 standard deviation of two or more runs.
Zero to 60 μM of guaiacol, syringol, or 3MC in 0.5 or 1 μM aliquots, were titrated into a cuvette containing 3 μM F169A GcoA in 25 mM HEPES, 50 mM NaCl, pH 7.5. The spectrum after each substrate addition was recorded, beginning with no substrate bound. The solution reached equilibrium before the next addition. A difference spectrum was made to illustrate the shift from a low-spin aquo-heme complex to the high-spin substrate-bound complex (spectral shift from 417 nm to 388 nm). […] The absorbance at 388 nm (AbS388-417 nm) was plotted as a function of [substrate], yielding a quadratic curve that was fit to equation (5) to determine the KD.
Where L0, Et, KD, and ΔAbsmax are the ligand concentrations, total protein (subunit) concentration, the equilibrium dissociation constant, and the maximum AbS388-417nm, respectively. Reported values are the average of 2 or more measurements.

GcoA-F169A and GcoB = target: T2, GcoA-F169A and GcoB (Amycolatopsis sp., UniProt P0DPQ7, F169A/H210Q); assay: Uncoupling reactions: H2O2 by Amplex Red/HRP assay referenced to NADH consumed; assay type: biochemical
T2 construct: GST (N, cleaved yes); made in house; host or cells: E. coli Rosetta 2 (DE3)
Protocol: The ^a in Table 3 notes that 0.2 μM GcoA-F169A and GcoB were reacted with 100 μg catalase, 100 or 200 μM NADH, and 100 μM substrate in 25 mM HEPES, 50 mM NaCl, pH 7.5, 25° C., 210 μM O2. Endpoint analyses were done to quantify formaldehyde produced, which was then referenced to NADH consumed. The ^b in Table 3 notes that the same reaction done above was repeated to quantify H2O2 produced using the Amplex Red/HRP assay. The amount of hydrogen peroxide was then referenced to NADH consumed.
Detection of H2O2 via HRP and Amplex Red assay. A colorimetric assay involving horseradish peroxidase (HRP) and Amplex Red was used to quantify H2O2 in the reaction between GcoA-F169A GcoA/GcoB, NADH and guaiacol, syringol, or 3MC.
Detection of H2O2 via horseradish peroxidase (HRP) and Amplex Red assay. The reaction between 100 μM guaiacol or 3MC with 0.2 μM F169A/GcoB and 100 μM NADH in air-saturated buffer (25 mM HEPES, 50 mM NaCl, pH 7.5) was monitored continuously in a quartz cuvette, using the NADH consumption assay described above. The same thing was done for syringol, but with either 100 or 200 μM NADH. When there was no longer any change in the spectra, e.g., the reaction was completed, 100 μL was removed from the cuvette and pipetted into a 96-well microplate. A 5 mL solution containing 50 μL of 10 mM Amplex Red (prepared in DMSO and stored at −20° C.) and 100 μL of 10 U/mL HRP was made up in the above buffer. One hundred μL of this was added to each of the wells with each reaction sample. The plate was incubated in the dark at room temperature for 30 min, at which point the absorbance at 572 nm was recorded by a Varioskan Lux microplate reader (Thermo Scientific). The absorbance was compared to a standard curve with 0-100 μM H2O2 to quantify the amount of peroxide produced in the reactions.

T1 sequence (P0DPQ7 whole entry F169A/H210Q): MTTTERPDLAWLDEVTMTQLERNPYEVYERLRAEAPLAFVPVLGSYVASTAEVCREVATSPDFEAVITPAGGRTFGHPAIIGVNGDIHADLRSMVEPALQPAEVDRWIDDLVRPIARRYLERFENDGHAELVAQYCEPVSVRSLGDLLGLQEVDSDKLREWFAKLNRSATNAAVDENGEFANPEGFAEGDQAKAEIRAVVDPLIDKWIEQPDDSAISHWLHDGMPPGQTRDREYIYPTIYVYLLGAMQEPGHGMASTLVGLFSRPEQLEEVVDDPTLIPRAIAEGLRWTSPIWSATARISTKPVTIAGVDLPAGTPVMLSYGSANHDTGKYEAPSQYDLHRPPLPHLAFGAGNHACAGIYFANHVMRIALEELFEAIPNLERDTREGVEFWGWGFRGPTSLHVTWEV
T2 sequence (P0DPQ7 whole entry F169A/H210Q): as above

COc1cccc(O)c1O [3MC, 3-methoxycatechol]
Kd (GcoA-F169A): 9.5 ± 0.02 µM
% H2O2 produced (GcoA-F169A and GcoB; 100 μM substrate + 100 μM NADH): 17 ± 0.2%

COc1ccccc1O [guaiacol, 2-methoxyphenol]
Kd (GcoA-F169A): 7.1 ± 0.1 µM
% H2O2 produced (GcoA-F169A and GcoB; 100 μM substrate + 100 μM NADH): 3.7 ± 0.6%

COc1cccc(OC)c1O [syringol, 2,6-dimethoxyphenol]
Kd (GcoA-F169A): 1.7 ± 0.07 µM
% H2O2 produced (GcoA-F169A and GcoB; 100 μM substrate + 100 μM NADH): 7.4 ± 0.03%
% H2O2 produced (GcoA-F169A and GcoB; 100 μM substrate + 200 μM NADH): 7.9 ± 0.5%
